# According to US4001272A, “Herbicidal 2-fluoro-4-halo-phenyl-4,5,6,7-tetrahydro-2H-isoindole-1,3-diones” (E. I. Du Pont de Nemours and Company, priority 1974, dated 1977):
# How the values were obtained:
# Assay type in all cases: in vivo
# [1] = test system: crabgrass (Digitaria sanquinalis); test: Test C: preemergence weed control in rice, crabgrass; settings: 29 days after treatment
# Description: (§1) In test A, soybeans, peanuts, lima beans, green beans and squash were planted in a field infested with the following weed seeds: crabgrass (Digitaria sanquinalis), foxtails (Setaria spp.), barnyardgrass (Echinochloa crusgalli), pigweed (Amaranthus spp.), ragweed (Ambrosia artemisiifolia), velvetleaf (Abutilon theophrasti), purslane (Portulaca oleracea) and flower-of-an-hour (Hibiscus trionum). A 50% wettable powder formulation of 2-(4-chloro-2-fluorophenyl)-4,5,6,7-tetrahydro-2H-isoindole-1,3-dione was applied in the form of an aqueous suspension at rates of 0.125, 0.25, 0.5 and 1.0 kg/ha, each treatment replicated twice. The plots were rated for percent weed control and crop response seven weeks after treatment. Crop response was expressed on a scale of 0 = no injury to 10 = complete kill.
# (§2) Test C concerned preemergence weed control in rice. The field selected contained seeds of the following weed species: crabgrass (Digitaria sanquinalis), foxtail (Setaria spp.), barnyardgrass (Echinochloa crusgalli), pigweed (Amaranthus spp.), ragweed (Ambrosia artemisiifolia), velvetleaf (Abutilon theophrasti), purslane (Portulaca oleracea) and flower-of-an-hour (Hibiscus trionum). Two varieties of rice, CSM-3 and Nato, were planted at depths of both 1 and 2 cm. In addition, rice seedlings of both varieties were transplanted into the field to be treated. Immediately thereafter, the plot was treated with an aqueous suspension of 2-(4-chloro-2-fluorophenyl)-4,5,6,7-tetrahydro-2H-isoindole-1,3-dione (Treatment I) at rates of 0.125 and 0.25 kg/ha, and an aqueous suspension of 2-(4-chlorophenyl)-4,5,6,7-tetrahydro-2H-isoindole-1,3dione (Treatment II) at rates of 0.25, 0.50, 1.00 and 2.00 kg/ha. The test chemicals had been formulated as 50% wettable powders. Overall spray volume was 540 l/ha. Ratings of percent weed control obtained and crop response were made 29 days after treatment, as described for test A. The ratings are summarized in the following Table III.
# [2] = test system: velvetleaf (Abutilon theophrasti); test: Test C: preemergence weed control in rice, velvetleaf; settings: 29 days after treatment
# Description: as §1, §2
# [3] = test system: ragweed (Ambrosia artemisiifolia); test: Test C: preemergence weed control in rice, ragweed; settings: 29 days after treatment
# Description: as §1, §2
# [4] = test system: lambsquarters (Chenopodium album); test: Test B: overall spray in carrot field after weed emergence, percent control of lambsquarters; settings: six weeks after treatment, 0.1% Tween 20
# Description: (§3) Test B involved a field sown to carrots and in which the following weed species emerged naturally: crabgrass (Digitaria sanquinalis), foxtails (Setaria spp.), barnyardgrass (Echinochloa crusgalli), pigweed (Amaranthus spp.), ragweed (Ambrosia artemisiifolia), velvetleaf (Abutilon theophrasti), smartweed (Polygonum spp.) and lambsquarters (Chenopodium album). Sixteen days after sowing, when all species of weeds had emerged, the plants were sprayed overall with a 50% wettable powder formulation of 2-(4-chloro-2-fluorophenyl)4,5,6,7-tetrahydro-2H-isoindole-1,3dione (Treatment I) in the form of an aqueous suspension, at rates of 0.5, 1.0, 2.0 and 4.0 kg/ha, and with 2-(4-chlorophenyl)-4,5,6,7-tetrahydro-2H-isoindole-1,3-dione (Treatment II) in the same form and at the same rates. The spray volume was 425 l/ha. The surfactant Tween 20* was added to all treatments in a concentration of 0.1% by weight. Six weeks after treatment, visual observations were made of percent weed control obtained and, for carrots, crop response.
# (§4) *Tween 20 -- A trademark of ICI of America which is the reaction product of sorbitan monolaurate with an average of 20 moles of ethylene oxide.
# foxtails (Setaria spp.) = test: Test B: overall spray in carrot field after weed emergence, percent control of foxtails; settings: six weeks after treatment, 0.1% Tween 20
# Description: as §3, §4
# [5] = test system: pigweed (Amaranthus spp.); test: Test C: preemergence weed control in rice, pigweed; settings: 29 days after treatment
# Description: as §1, §2
# [6] = test system: barnyardgrass (Echinochloa crusgalli); test: Test B: overall spray in carrot field after weed emergence, percent control of barnyardgrass; settings: six weeks after treatment, 0.1% Tween 20
# Description: as §3, §4
# [7] = test system: smartweed (Polygonum spp.); test: Test B: overall spray in carrot field after weed emergence, percent control of smartweed; settings: six weeks after treatment, 0.1% Tween 20
# Description: as §3, §4
# [8] = test system: flower-of-an-hour (Hibiscus trionum); test: Test C: preemergence weed control in rice, flower-of-an-hour; settings: 29 days after treatment
# Description: as §1, §2
# rice, variety Nato = test: Test C: crop response of rice Nato; settings: 29 days, 0 = no injury to 10 = complete kill; for Crop Response, Rice Nato, 1 cm: planting depth 1 cm; for Crop Response, Rice Nato, 2 cm: planting depth 2 cm; for Crop Response, Rice Nato, T: transplanted
# Description: In test A, soybeans, peanuts, lima beans, green beans and squash were planted in a field infested with the following weed seeds: crabgrass (Digitaria sanquinalis), foxtails (Setaria spp.), barnyardgrass (Echinochloa crusgalli), pigweed (Amaranthus spp.), ragweed (Ambrosia artemisiifolia), velvetleaf (Abutilon theophrasti), purslane (Portulaca oleracea) and flower-of-an-hour (Hibiscus trionum). […] The plots were rated for percent weed control and crop response seven weeks after treatment. Crop response was expressed on a scale of 0 = no injury to 10 = complete kill.
# Test C concerned preemergence weed control in rice. The field selected contained seeds of the following weed species: crabgrass (Digitaria sanquinalis), foxtail (Setaria spp.), barnyardgrass (Echinochloa crusgalli), pigweed (Amaranthus spp.), ragweed (Ambrosia artemisiifolia), velvetleaf (Abutilon theophrasti), purslane (Portulaca oleracea) and flower-of-an-hour (Hibiscus trionum). Two varieties of rice, CSM-3 and Nato, were planted at depths of both 1 and 2 cm. In addition, rice seedlings of both varieties were transplanted into the field to be treated. […] The test chemicals had been formulated as 50% wettable powders. Overall spray volume was 540 l/ha.
# [9] = test system: velvetleaf (Abutilon theophrasti); test: Test B: overall spray in carrot field after weed emergence, percent control of velvetleaf; settings: six weeks after treatment, 0.1% Tween 20
# Description: as §3, §4
# [10] = test system: pigweed (Amaranthus spp.); test: Test B: overall spray in carrot field after weed emergence, percent control of pigweed; settings: six weeks after treatment, 0.1% Tween 20
# Description: as §3, §4
smiles,measurement,setting,value
"O=C1C2=C(CCCC2)C(=O)N1c1ccc(Cl)cc1F [Treatment I, 2-(4-chloro-2-fluorophenyl)-4,5,6,7-tetrahydro-2H-isoindole-1,3-dione]","% Control, Crabgrass",[1]; 0.125 kg/ha,96%
same,"% Control, Crabgrass",[1]; 0.25 kg/ha,100%
same,"% Control, Velvetleaf",[2]; 0.125 kg/ha,100%
same,"% Control, Velvetleaf",[2]; 0.25 kg/ha,100%
same,"% Control, Ragweed",[3]; 0.125 kg/ha,100%
same,"% Control, Ragweed",[3]; 0.25 kg/ha,100%
same,"% Control, Lambsquarters",[4]; 0.5 kg/ha,100%
same,"% Control, Lambsquarters",[4]; 1.0 kg/ha,100%
same,"% Control, Lambsquarters",[4]; 2.0 kg/ha,100%
same,"% Control, Lambsquarters",[4]; 4.0 kg/ha,100%
same,"% Control, Foxtails",foxtails (Setaria spp.); 0.5 kg/ha,70%
same,"% Control, Foxtails",foxtails (Setaria spp.); 1.0 kg/ha,90%
same,"% Control, Foxtails",foxtails (Setaria spp.); 2.0 kg/ha,94%
same,"% Control, Foxtails",foxtails (Setaria spp.); 4.0 kg/ha,> 99%
same,"% Control, Pigweed",[5]; 0.125 kg/ha,99%
same,"% Control, Pigweed",[5]; 0.25 kg/ha,100%
same,"% Control, Barnyardgrass",[6]; 0.5 kg/ha,65%
same,"% Control, Barnyardgrass",[6]; 1.0 kg/ha,90%
same,"% Control, Barnyardgrass",[6]; 2.0 kg/ha,94%
same,"% Control, Barnyardgrass",[6]; 4.0 kg/ha,> 99%
same,"% Control, Smartweed",[7]; 0.5 kg/ha,> 99%
same,"% Control, Smartweed",[7]; 1.0 kg/ha,100%
same,"% Control, Smartweed",[7]; 2.0 kg/ha,100%
same,"% Control, Smartweed",[7]; 4.0 kg/ha,100%
same,"% Control, Flower-of-an-Hour",[8]; 0.125 kg/ha,100%
same,"% Control, Flower-of-an-Hour",[8]; 0.25 kg/ha,100%
same,"Crop Response, Rice Nato, 1 cm","rice, variety Nato; 0.125 kg/ha",3
same,"Crop Response, Rice Nato, 2 cm","rice, variety Nato; 0.125 kg/ha",1
same,"Crop Response, Rice Nato, T","rice, variety Nato; 0.125 kg/ha",0
same,"Crop Response, Rice Nato, 1 cm","rice, variety Nato; 0.25 kg/ha",6
same,"Crop Response, Rice Nato, 2 cm","rice, variety Nato; 0.25 kg/ha",2
same,"Crop Response, Rice Nato, T","rice, variety Nato; 0.25 kg/ha",0
same,"% Control, Velvetleaf",[9]; 0.5 kg/ha,100%
same,"% Control, Velvetleaf",[9]; 1.0 kg/ha,100%
same,"% Control, Velvetleaf",[9]; 2.0 kg/ha,100%
same,"% Control, Velvetleaf",[9]; 4.0 kg/ha,100%
same,"% Control, Pigweed",[10]; 0.5 kg/ha,92%
same,"% Control, Pigweed",[10]; 1.0 kg/ha,99%
same,"% Control, Pigweed",[10]; 2.0 kg/ha,100%
same,"% Control, Pigweed",[10]; 4.0 kg/ha,100%
